Values of other authors in US20050049255A1, “Therapeutic combinations” (Pfizer Inc, priority 2003, published 2005).

Test system: dysmenorrhoea

| Molecule | efficacy in the treatment of dysmenorrhoea (given intravenously, pilot study) | intensity of pain in women with dysmenorrhoea (double blind, randomised placebo controlled cross over trial, oral) |
| --- | --- | --- |
| 1-deamino-2-D-Tyr (Oet)-4-Thr-8-Orn-oxytocin | effective in the treatment of dysmenorrhoea | – |
| COc1ccc(S(=O)(=O)N2c3ccc(Cl)cc3[C@](O)(c3ccccc3Cl)[C@@H]2C(=O)N2CCC[C@H]2C(N)=O)cc1OC [Relcovaptan] | – | dose dependently reduced the intensity of pain |
